Data as given in patent US20170107207A1, “AMINOPYRAZOLONE DERIVATIVE” (DAIICHI SANKYO COMPANY, LIMITED, priority 2014, published 2017).

What was measured:
TIP48/TIP49 complex = target: T1, TIP48/TIP49 complex (Homo sapiens, UniProt Q9Y230+Q9Y265); assay: ATPase assay of TIP48/TIP49 complex (ADP-Glo); assay type: biochemical; settings: concentration at which the ATPase activity was inhibited by 50%
T1 construct: made in house; host or cells: E. coli
Source text: The ATPase activity of the TIP48/TIP49 complex can be measured by use of an ATPase assay described below in Test Examples 1 and 2. The ATPase activity of the TIP48/TIP49 complex can be measured, as described below in the Test Examples, for example, by using recombinant human TIP48 and TIP49 proteins (hereinafter, referred to as rTIP48 and rTIP49) and ATP in the presence or absence of a test compound and measuring the amount of ADP formed through hydrolysis by the ATPase activity of the TIP48/TIP49 complex, using ADP-Glo. Alternatively, the ATPase activity of the TIP48/TIP49 complex can be measured by a method described in, for example, J. Mol. Biol. 366, 172-179 (2007).
An ATPase assay of a TIP48/TIP49 complex was conducted using rTIP48 and rTIP49. Human TIP48 and TIP49 DNAs were purchased from Open Biosystems. Human TIP48 and TIP49 cDNAs cloned by PCR using the purchased DNAs were each integrated into plasmids for expression in E. coli and expressed in E. coli to obtain rTIP48 and rTIP49.
A test compound was dissolved at 10 mM using DMSO. The solution was diluted to 10 concentrations as 4-fold serial dilutions from 10 mM using DMSO.
A 2×assay buffer (100 mM Tris-HCl, pH 7.5, 100 mM NaCl, 40 mM MgCl2, 2 mM DTT, 20 μM ATP, and 0.2 mg/mL BSA) was dispensed at 24.5 μL/well to a 384-well assay plate.
Test compound solutions were dispensed thereto at 1 μL/well. Subsequently, the solution in each well was mixed using a plate mixer.
rTIP48 and rTIP49 were diluted to a concentration of 50 μg/mL using sterilized water. The diluted solution was dispensed at 24.5 μL/well to the 384-well assay plate. Subsequently, the solution in each well was mixed using a plate mixer (final concentration: 24.5 μg/mL) (concentration of each test compound solution: 200 μM, 50 μM, 12.5 μM, 3.12 μM, 0.78 μM, 0.20 μM, 0.049 μM, 0.012 μM, 0.003 μM, and 0.0007 μM; DMSO concentration: 2%).
After the mixing using the plate mixer, the assay plate was left standing at room temperature for 1.5 hours.
5 μL of the solution in each well was transferred to a white assay plate, and ADP-Glo Reagent from ADP-Glo Kinase Assay (Promega Corp., catalog No. V9101) was dispensed thereto at 5 μL/well. After completion of the reaction, the plate was left standing at room temperature for 40 minutes. Kinase Detection Reagent was further dispensed thereto at 5 μL/well, and the plate was left standing at room temperature for 30 minutes. Then, luminescence intensity was measured using a plate reader.
The ATPase inhibitory activity was calculated according to the expression given below.
The luminescence intensity of a well supplemented with the test compound and the TIP48/TIP49 complex was defined as A. The luminescence intensity of a well supplemented with only the TIP48/TIP49 complex was defined as B. The luminescence intensity of a well supplemented with neither the test compound nor the TIP48/TIP49 complex was defined as C. The ratio between the test compound-supplemented group and the test compound-nonsupplemented group (T/C value) was determined according to the following calculation expression:
The dose-response curve was calculated using GraphPad Prism 4 from the concentration of each of the serially diluted test compounds and the ATPase inhibitory activity (%) at this concentration.

[1] = test system: human lymphoma cell line RAMOS cells; assay: Cell growth inhibition test using RAMOS cell, ATP assay (CellTiter-Glo); assay type: cell-based; settings: cultured 3 days, 50% growth inhibition concentration
Description: A cell growth inhibition test was carried out by treating human lymphoma cell line RAMOS cells with a test compound for a given period and then counting the number of viable cells by MTT assay or CellTiter-Glo Luminescent Cell Viability Assay (manufactured by Promega Corp.; hereinafter, referred to as ATP assay).
RAMOS cells were inoculated at 4000 cells/40 μL/well to a 384-well plate containing the compound prepared in advance at predetermined concentrations. The cells thus inoculated were cultured at 37° C. for 3 days under 5% CO2. In order to measure a cell survival rate, CellTiter-Glo Reagent was added in an amount corresponding to 1/4 of the amount of the culture solution at the day of cell inoculation and at the final culture date and stirred at room temperature for 2 minutes. Then, luminescence intensity was measured using a plate reader. The cell survival rate was calculated according to the expression given below.
The number of viable cells and luminescence intensity have been confirmed to correlate with each other. Therefore, the rate of cell growth was calculated according to the following expression: Rate of cell growth (T/C %) of a test compound-supplemented well=100×[(B−C)/(A−C)] wherein A represents the luminescence intensity (final culture date) of a test compound-free well; B represents the luminescence intensity (final culture date) of a test compound-containing well; and C represents the luminescence intensity (day of cell inoculation) of a well at the start of contact of the cells with the test compound.
T/C % at each concentration of the test compound was determined. The concentration at which the test compound offered 50% growth rate was calculated as a GI50 value from the growth rates at two points interpolating 50% and the concentrations, and is shown in Table 56.

T1 sequence (Q9Y230 whole entry): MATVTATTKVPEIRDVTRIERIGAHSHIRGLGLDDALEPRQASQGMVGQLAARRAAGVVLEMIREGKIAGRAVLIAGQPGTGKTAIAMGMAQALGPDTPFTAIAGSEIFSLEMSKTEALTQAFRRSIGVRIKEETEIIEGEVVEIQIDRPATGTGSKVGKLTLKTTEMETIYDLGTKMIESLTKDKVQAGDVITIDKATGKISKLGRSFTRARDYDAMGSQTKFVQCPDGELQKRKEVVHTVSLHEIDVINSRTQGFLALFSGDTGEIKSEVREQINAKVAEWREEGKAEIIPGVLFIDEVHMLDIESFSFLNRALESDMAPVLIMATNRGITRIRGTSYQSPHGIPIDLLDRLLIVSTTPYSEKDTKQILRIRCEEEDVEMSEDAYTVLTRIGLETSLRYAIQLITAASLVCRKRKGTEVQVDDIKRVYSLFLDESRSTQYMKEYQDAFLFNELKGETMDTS
T1 sequence (Q9Y265 whole entry): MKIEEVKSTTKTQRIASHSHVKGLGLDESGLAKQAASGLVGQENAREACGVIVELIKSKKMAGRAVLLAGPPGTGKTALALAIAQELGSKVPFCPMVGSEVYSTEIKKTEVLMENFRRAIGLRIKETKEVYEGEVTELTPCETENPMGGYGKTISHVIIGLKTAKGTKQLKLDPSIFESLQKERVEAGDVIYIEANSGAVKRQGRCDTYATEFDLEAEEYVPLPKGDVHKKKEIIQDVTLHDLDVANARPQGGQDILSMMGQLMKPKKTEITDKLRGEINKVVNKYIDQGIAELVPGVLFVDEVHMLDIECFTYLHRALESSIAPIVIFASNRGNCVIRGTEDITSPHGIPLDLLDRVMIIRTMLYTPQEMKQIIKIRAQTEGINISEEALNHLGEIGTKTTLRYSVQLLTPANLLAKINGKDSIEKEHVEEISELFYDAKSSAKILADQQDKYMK

| Compound | IC50 (TIP48/TIP49 complex) | GI50 ([1]; Homo sapiens, Ramos, 72 h) | GI50 [1] |
| --- | --- | --- | --- |
| CCOc1ncc(Cl)cc1C(=O)NCC(C)(C)CC(=O)Nc1c(C(C)NC)n(C)n(-c2ccccc2)c1=O (single isomer, unassigned) [Example 85, (+)-/(−)-5-Chloro-N-[2,2-dimethyl-4-({1-methyl-5-[1-(methylamino)ethyl]-3-oxo-2-phenyl-2,3-dihydro-1H-pyrazol-4-yl}amino)-4-oxobutyl]-2-ethoxypyridine-3-carboxamide] | 110 nM | 300 nM | – |
| CCOc1ncc(Cl)cc1C(=O)NCC(C)(C)CC(=O)Nc1c(C(CN(C)C)OC)n(C)n(-c2ccccc2)c1=O (single isomer, unassigned; (+)) [Example 83, (+)-5-Chloro-N-[4-({5-[2-(dimethylamino)-1-methoxyethyl]-1-methyl-3-oxo-2-phenyl-2,3-dihydro-1H-pyrazol-4-yl}amino)-2,2-dimethyl-4-oxobutyl]-2-ethoxypyridine-3-carboxamide] | 65 nM | – | 490 nM |
| CCOc1ncc(Cl)cc1C(=O)NCC(C)(C)CC(=O)Nc1c(C(CN(C)C)OC)n(C)n(-c2ccccc2)c1=O (single isomer, unassigned; (-)) [Example 82, (−)-5-Chloro-N-[4-({5-[2-(dimethylamino)-1-methoxyethyl]-1-methyl-3-oxo-2-phenyl-2,3-dihydro-1H-pyrazol-4-yl}amino)-2,2-dimethyl-4-oxobutyl]-2-ethoxypyridine-3-carboxamide] | 49 nM | 370 nM | – |
| CCOc1ncc(Cl)cc1C(=O)NCC(C)(C)CC(=O)Nc1c(C(C)NC)n(C)n(-c2ccccc2)c1=O (single isomer, unassigned; (-)) [Example 86, (−)-5-Chloro-N-[2,2-dimethyl-4-({1-methyl-5-[1-(methylamino)ethyl]-3-oxo-2-phenyl-2,3-dihydro-1H-pyrazol-4-yl}amino)-4-oxobutyl]-2-ethoxypyridine-3-carboxamide] | 90 nM | – | 180 nM |
| CCOc1ccc(Cl)cc1C(=O)NCC(C)(C)CC(=O)Nc1c(C(C)NC)n(C)n(-c2ccccc2)c1=O (stereo not drawn) [Example 1, 5-Chloro-N-[2,2-dimethyl-4-({1-methyl-5-[1-(methylamino)ethyl]-3-oxo-2-phenyl-2,3-dihydro-1H-pyrazol-4-yl}amino)-4-oxobutyl]-2-ethoxybenzamide] | 170 nM | 130 nM | – |
| CCOc1ncc(Cl)cc1C(=O)NCC(C)(C)CC(=O)Nc1c(C(C)NC)n(C)n(-c2ccccc2)c1=O (stereo not drawn) [Example 2, 5-Chloro-N-[2,2-dimethyl-4-({1-methyl-5-[1-(methylamino)ethyl]-3-oxo-2-phenyl-2,3-dihydro-1H-pyrazol-4-yl}amino)-4-oxobutyl]-2-ethoxypyridine-3-carboxamide] | 160 nM | 250 nM | – |
| COCc1cc2cc(Cl)cc(C(=O)NCC(C)(C)CC(=O)Nc3c(CCN(C)C)n(C)n(-c4ccccc4)c3=O)c2o1 [Example 15, 5-Chloro-N-[4-({5-[2-(dimethylamino)ethyl]-1-methyl-3-oxo-2-phenyl-2,3-dihydro-1H-pyrazol-4-yl}amino)-2,2-dimethyl-4-oxobutyl]-2-(methoxymethyl)benzofuran-7-carboxamide] | 76 nM | 570 nM | – |
| CN(C)CCc1c(NC(=O)CC(C)(C)CNC(=O)c2cc(Cl)cc3c2OCCO3)c(=O)n(-c2ccccc2)n1C [Example 16, 7-Chloro-N-[4-({5-[2-(dimethylamino)ethyl]-1-methyl-3-oxo-2-phenyl-2,3-dihydro-1H-pyrazol-4-yl}amino)-2,2-dimethyl-4-oxobutyl]-2,3-dihydro-1,4-benzodioxine-5-carboxamide] | 68 nM | 570 nM | – |
| CCOc1ccc(Cl)cc1C(=O)NCC(C)(C)CC(=O)Nc1c(CCNCC(F)(F)F)n(C)n(-c2ccccc2)c1=O [Example 26, 5-Chloro-N-[2,2-dimethyl-4-({1-methyl-3-oxo-2-phenyl-5-[2-(2,2,2-trifluoroethylamino)ethyl]pyrazol-4-yl}amino)-4-oxobutyl]-2-ethoxybenzamide] | 33 nM | 130 nM | – |
| CCOc1cc(F)c(Cl)cc1C(=O)NCC(C)(C)CC(=O)Nc1c(CCNCC(F)(F)F)n(C)n(-c2ccccc2)c1=O [Example 27, 5-Chloro-N-[2,2-dimethyl-4-({1-methyl-3-oxo-2-phenyl-5-[2-(2,2,2-trifluoroethylamino)ethyl]-2,3-dihydro-1H-pyrazol-4-yl}amino)-4-oxobutyl]-2-ethoxy-4-fluorobenzamide] | 48 nM | 130 nM | – |
| COCOc1ccc(Cl)cc1C(=O)NCC(C)(C)CC(=O)Nc1c(CCN(C)C)n(C)n(-c2ccccc2)c1=O [Example 28, 5-Chloro-N-[4-({5-[2-(dimethylamino)ethyl]1-methyl-3-oxo-2-phenyl-2,3-dihydro-1H-pyrazol-4-yl}amino)-2,2-dimethyl-4-oxobutyl]-2-(methoxymethoxy)benzamide] | 48 nM | 200 nM | – |
| COCOc1cc(F)c(Cl)cc1C(=O)NCC(C)(C)CC(=O)Nc1c(CCN(C)C)n(C)n(-c2ccccc2)c1=O [Example 29, 5-Chloro-N-[4-({5-[2-(dimethylamino)ethyl]1-methyl-3-oxo-2-phenyl-2,3-dihydro-1H-pyrazol-4-yl}amino)-2,2-dimethyl-4-oxobutyl]-4-fluoro-2-(methoxymethoxy)benzamide] | 48 nM | 150 nM | – |
| CCOc1ncc(Br)cc1C(=O)NCC(C)(C)CC(=O)Nc1c(CCN(C)C)n(C)n(-c2ccccc2)c1=O [Example 30, 5-Bromo-N-[4-({5-[2-(dimethylamino)ethyl]1-methyl-3-oxo-2-phenyl-2,3-dihydro-1H-pyrazol-4-yl}amino)-2,2-dimethyl-4-oxobutyl]-2-ethoxypyridine-3-carboxamide] | 94 nM | 480 nM | – |
| [2H]C([2H])([2H])N(CCc1c(NC(=O)CC(C)(C)CNC(=O)c2cc(Cl)ccc2OCC)c(=O)n(-c2ccccc2)n1C)C([2H])([2H])[2H] [Example 31, N-{4-[(5-{2-[bis(trideuteriomethyl)amino]ethyl}-1-methyl-3-oxo-2-phenyl-2,3-dihydro-1H-pyrazol-4-yl)amino]-2,2-dimethyl-4-oxobutyl}-5-chloro-2-ethoxybenzamide] | 52 nM | 170 nM | – |
| CCOc1ccc(Cl)cc1NC(=O)CC1(CC(=O)Nc2c(CCN(C)C)n(C)n(-c3ccccc3)c2=O)CCCC1 [Example 32, N-(5-chloro-2-ethoxyphenyl)-2-{1-[2-({5-[2-(dimethylamino)ethyl]-1-methyl-3-oxo-2-phenyl-2,3-dihydro-1H-pyrazol-4-yl}amino)-2-oxoethyl]cyclopentyl}acetamide] | 130 nM | 1300 nM | – |
